Assay results published in patent US12077503B2, “Substituted cyclic amides and their use as herbicides” (FMC CORPORATION, priority 2015, dated 2024).

Key:
Format in all cases: in vivo
[1] = test system: ivy-leaved morning glory (Ipomoea hederacea); test: Test G Pre-Emergence Protocol; details: Ipomoea, pre-emergence, 312 h, evaluated after 13 days; for pest or weed control at 15.625 g/ha: 15.625 g ai/ha; for pest or weed control at 15.625 g/ha / pest or weed control at 250 g/ha: read-out: Morningglory, Ivy-leaved damage rating (100=total damage to plant; 0=no damage to plant); for pest or weed control at 62.5 g/ha: 62.5 g ai/ha, 100=total damage to plant, 0=no damage to plant, read-out: Morningglory, Ivy-leaved damage rating; for pest or weed control at 250 g/ha: 250 g ai/ha
Outline: (§1)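 One day after sowing, pots are treated with a spray of test compound formulated in acetone/water 50:50 plus 0.5% Tween 20, giving 15.625, 62.5 or 250 g/ha. Evaluation on a 0–100 damage scale follows 13 days of glasshouse growth.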

[2] = test system: redroot pigweed (Amaranthus retroflexus); test: Test G Pre-Emergence Protocol; details: Amaranthus retroflexus, pre-emergence, 312 h, evaluated after 13 days; for pest or weed control at 15.625 g/ha: 15.625 g ai/ha; for pest or weed control at 15.625 g/ha / pest or weed control at 250 g/ha: read-out: Pigweed, Redroot damage rating (100=total damage to plant; 0=no damage to plant); for pest or weed control at 62.5 g/ha: 62.5 g ai/ha, 100=total damage to plant, 0=no damage to plant, read-out: Pigweed, Redroot damage rating; for pest or weed control at 250 g/ha: 250 g ai/ha
Outline: as §1

[3] = test system: velvetleaf (Abutilon theophrasti); test: Test G Pre-Emergence Protocol; details: Abutilon theophrasti, pre-emergence, 312 h, evaluated after 13 days; for pest or weed control at 15.625 g/ha: 15.625 g ai/ha; for pest or weed control at 15.625 g/ha / pest or weed control at 250 g/ha: read-out: Velvetleaf damage rating (100=total damage to plant; 0=no damage to plant); for pest or weed control at 62.5 g/ha: 62.5 g ai/ha, 100=total damage to plant, 0=no damage to plant, read-out: Velvetleaf damage rating; for pest or weed control at 250 g/ha: 250 g ai/ha
Outline: as §1

[4] = test system: barnyardgrass (Echinochloa crus-galli); test: Test G Pre-Emergence Protocol; details: Echinochloa crus-galli, pre-emergence, 312 h, evaluated after 13 days; for pest or weed control at 15.625 g/ha: 15.625 g ai/ha; for pest or weed control at 15.625 g/ha / pest or weed control at 250 g/ha: read-out: Barnyardgrass damage rating (100=total damage to plant; 0=no damage to plant); for pest or weed control at 62.5 g/ha: 62.5 g ai/ha, 100=total damage to plant, 0=no damage to plant, read-out: Barnyardgrass damage rating; for pest or weed control at 250 g/ha: 250 g ai/ha
Outline: as §1

[5] = test system: corn (Zea mays); test: Test G Pre-Emergence Protocol; details: Zea mays, pre-emergence, 312 h, evaluated after 13 days; for plant injury at 15.625 g/ha: 15.625 g ai/ha; for plant injury at 15.625 g/ha / plant injury at 250 g/ha: read-out: Corn damage rating (100=total damage to plant; 0=no damage to plant); for plant injury at 62.5 g/ha: 62.5 g ai/ha, 100=total damage to plant, 0=no damage to plant, read-out: Corn damage rating; for plant injury at 250 g/ha: 250 g ai/ha
Outline: as §1

[6] = test system: giant foxtail (Setaria faberi); test: Test G Pre-Emergence Protocol; details: Setaria faberi, pre-emergence, 312 h, evaluated after 13 days; for pest or weed control at 15.625 g/ha: 15.625 g ai/ha; for pest or weed control at 15.625 g/ha / pest or weed control at 250 g/ha: read-out: Foxtail, Giant damage rating (100=total damage to plant; 0=no damage to plant); for pest or weed control at 62.5 g/ha: 62.5 g ai/ha, 100=total damage to plant, 0=no damage to plant, read-out: Foxtail, Giant damage rating; for pest or weed control at 250 g/ha: 250 g ai/ha
Outline: as §1

[7] = test system: ivy-leaved morning glory (Ipomoea hederacea); test: Test G Post-Emergence Protocol; details: Ipomoea, post-emergence, 312 h, read-out: Morningglory, Ivy-leaved damage rating; for pest or weed control at 15.625 g/ha: 15.625 g ai/ha, evaluated after 13 days (100=total damage to plant; 0=no damage to plant); for pest or weed control at 62.5 g/ha: 62.5 g ai/ha; for pest or weed control at 62.5 g/ha / pest or weed control at 250 g/ha: evaluated after 13 days, 100=total damage to plant, 0=no damage to plant; for pest or weed control at 250 g/ha: 250 g ai/ha
Outline: (§2)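 Sow in soil; grow 8 d (24/16 °C, 14 h light, 65% humidity); spray 15.625/62.5/250 g/ha in acetone:water 50:50 + 0.5% Tween 20; grow on, water twice daily; score damage 0–100 at 13 d.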

[8] = test system: redroot pigweed (Amaranthus retroflexus); test: Test G Post-Emergence Protocol; details: Amaranthus retroflexus, post-emergence, 312 h, read-out: Pigweed, Redroot damage rating; for pest or weed control at 15.625 g/ha: 15.625 g ai/ha, evaluated after 13 days (100=total damage to plant; 0=no damage to plant); for pest or weed control at 62.5 g/ha: 62.5 g ai/ha; for pest or weed control at 62.5 g/ha / pest or weed control at 250 g/ha: evaluated after 13 days, 100=total damage to plant, 0=no damage to plant; for pest or weed control at 250 g/ha: 250 g ai/ha
Outline: as §2

[9] = test system: velvetleaf (Abutilon theophrasti); test: Test G Post-Emergence Protocol; details: Abutilon theophrasti, post-emergence, 312 h, read-out: Velvetleaf damage rating; for pest or weed control at 15.625 g/ha: 15.625 g ai/ha, evaluated after 13 days (100=total damage to plant; 0=no damage to plant); for pest or weed control at 62.5 g/ha: 62.5 g ai/ha; for pest or weed control at 62.5 g/ha / pest or weed control at 250 g/ha: evaluated after 13 days, 100=total damage to plant, 0=no damage to plant; for pest or weed control at 250 g/ha: 250 g ai/ha
Outline: as §2

[10] = test system: barnyardgrass (Echinochloa crus-galli); test: Test G Post-Emergence Protocol; details: Echinochloa crus-galli, post-emergence, 312 h, read-out: Barnyardgrass damage rating; for pest or weed control at 15.625 g/ha: 15.625 g ai/ha, evaluated after 13 days (100=total damage to plant; 0=no damage to plant); for pest or weed control at 62.5 g/ha: 62.5 g ai/ha; for pest or weed control at 62.5 g/ha / pest or weed control at 250 g/ha: evaluated after 13 days, 100=total damage to plant, 0=no damage to plant; for pest or weed control at 250 g/ha: 250 g ai/ha
Outline: as §2

[11] = test system: corn (Zea mays); test: Test G Post-Emergence Protocol; details: Zea mays, post-emergence, 312 h, read-out: Corn damage rating; for plant injury at 15.625 g/ha: 15.625 g ai/ha, evaluated after 13 days (100=total damage to plant; 0=no damage to plant); for plant injury at 62.5 g/ha: 62.5 g ai/ha; for plant injury at 62.5 g/ha / plant injury at 250 g/ha: evaluated after 13 days, 100=total damage to plant, 0=no damage to plant; for plant injury at 250 g/ha: 250 g ai/ha
Outline: as §2

[12] = test system: giant foxtail (Setaria faberi); test: Test G Post-Emergence Protocol; details: Setaria faberi, post-emergence, 312 h, read-out: Foxtail, Giant damage rating; for pest or weed control at 15.625 g/ha: 15.625 g ai/ha, evaluated after 13 days (100=total damage to plant; 0=no damage to plant); for pest or weed control at 62.5 g/ha: 62.5 g ai/ha; for pest or weed control at 62.5 g/ha / pest or weed control at 250 g/ha: evaluated after 13 days, 100=total damage to plant, 0=no damage to plant; for pest or weed control at 250 g/ha: 250 g ai/ha
Outline: as §2

Row | Compound | pest or weed control at 15.625 g/ha [1] [%] | pest or weed control at 62.5 g/ha [1] [%] | pest or weed control at 250 g/ha [1] [%] | pest or weed control at 15.625 g/ha [2] [%] | pest or weed control at 62.5 g/ha [2] [%] | pest or weed control at 250 g/ha [2] [%] | pest or weed control at 15.625 g/ha [3] [%] | pest or weed control at 62.5 g/ha [3] [%] | pest or weed control at 250 g/ha [3] [%] | pest or weed control at 15.625 g/ha [4] [%] | pest or weed control at 62.5 g/ha [4] [%] | pest or weed control at 250 g/ha [4] [%] | plant injury at 15.625 g/ha [5] [%] | plant injury at 62.5 g/ha [5] [%] | plant injury at 250 g/ha [5] [%] | pest or weed control at 15.625 g/ha [6] [%] | pest or weed control at 62.5 g/ha [6] [%] | pest or weed control at 250 g/ha [6] [%] | pest or weed control at 15.625 g/ha [7] [%] | pest or weed control at 62.5 g/ha [7] [%] | other results
1 | COc1cc(F)cc(C2CN(C)C(=O)C2C(=O)Nc2cccc(F)c2F)c1 (stereo not drawn) [Compound 1699] | 0 | 10 | 70 | 0 | 0 | 0 | 0 | 0 | 0 | 60 | 80 | 90 | 0 | 30 | 70 | 80 | 90 | 90 | 10 | 30 | pest or weed control at 250 g/ha [7]: 70%; pest or weed control at 15.625 g/ha [8]: 0%; pest or weed control at 62.5 g/ha [8]: 0%; pest or weed control at 250 g/ha [8]: 30%; pest or weed control at 15.625 g/ha [9]: 0%; pest or weed control at 62.5 g/ha [9]: 0%; pest or weed control at 250 g/ha [9]: 30%; pest or weed control at 15.625 g/ha [10]: 60%; pest or weed control at 62.5 g/ha [10]: 80%; pest or weed control at 250 g/ha [10]: 90%; plant injury at 15.625 g/ha [11]: 0%; plant injury at 62.5 g/ha [11]: 30%; plant injury at 250 g/ha [11]: 70%; pest or weed control at 15.625 g/ha [12]: 80%; pest or weed control at 62.5 g/ha [12]: 80%; pest or weed control at 250 g/ha [12]: 80%
2 | Cc1ccc(C2CN(C)C(=O)C2C(=O)Nc2cccc(F)c2F)cc1[N+](=O)[O-] (stereo not drawn) [Compound 1722] | 0 | 0 | 0 | 0 | 10 | 30 | 0 | 0 | 20 | 0 | 60 | 80 | 10 | 30 | 70 | 60 | 70 | 90 | 20 | 30 | pest or weed control at 250 g/ha [7]: 70%; pest or weed control at 15.625 g/ha [8]: 0%; pest or weed control at 62.5 g/ha [8]: 10%; pest or weed control at 250 g/ha [8]: 30%; pest or weed control at 15.625 g/ha [9]: 0%; pest or weed control at 62.5 g/ha [9]: 10%; pest or weed control at 250 g/ha [9]: 10%; pest or weed control at 15.625 g/ha [10]: 10%; pest or weed control at 62.5 g/ha [10]: 60%; pest or weed control at 250 g/ha [10]: 80%; plant injury at 15.625 g/ha [11]: 10%; plant injury at 62.5 g/ha [11]: 0%; plant injury at 250 g/ha [11]: 80%; pest or weed control at 15.625 g/ha [12]: 60%; pest or weed control at 62.5 g/ha [12]: 70%; pest or weed control at 250 g/ha [12]: 80%
3 | CC1OC(=O)c2c(NC(=O)[C@H]3C(=O)N(C)C[C@@H]3c3ccc(C(F)(F)F)cc3)cccc21 (mixture of isomers) [Compound 1670] | 0 | 0 | 0 | 0 | 0 | 20 | 0 | 0 | 0 | 0 | 0 | 0 | 0 | 0 | 0 | 0 | 20 | 50 | 0 | 0 | pest or weed control at 250 g/ha [7]: 0%; pest or weed control at 15.625 g/ha [8]: 0%; pest or weed control at 62.5 g/ha [8]: 20%; pest or weed control at 250 g/ha [8]: 90%; pest or weed control at 15.625 g/ha [9]: 0%; pest or weed control at 62.5 g/ha [9]: 0%; pest or weed control at 250 g/ha [9]: 0%; pest or weed control at 15.625 g/ha [10]: 0%; pest or weed control at 62.5 g/ha [10]: 20%; pest or weed control at 250 g/ha [10]: 60%; plant injury at 15.625 g/ha [11]: 0%; plant injury at 62.5 g/ha [11]: 0%; plant injury at 250 g/ha [11]: 10%; pest or weed control at 15.625 g/ha [12]: 0%; pest or weed control at 62.5 g/ha [12]: 70%; pest or weed control at 250 g/ha [12]: 80%
